Source: article PMC12846068, “Insights into Transport Function of the Murine Organic Anion-Transporting Polypeptide OATP1B2 by Comparison with Its Rat and Human Orthologues” (Toxics, 2025)
Entries after “also recorded” stand apart in the source; their conditions may differ. Read-outs that look alike come from different tables or passages of the source.

What was measured:
Assay type in all cases: cell-based
[1] = biological target: T1, rOATP1B2 (Rattus norvegicus, UniProt Q9QZX8); test: cis-inhibition of rOATP1B2-mediated E1S or TCA uptake in HEK293 cells
T1 construct: The full-length mOATP1B2 and rOATP1B2 consist of 689 and 678 amino acids
T1 sequence (Q9QZX8 1-687): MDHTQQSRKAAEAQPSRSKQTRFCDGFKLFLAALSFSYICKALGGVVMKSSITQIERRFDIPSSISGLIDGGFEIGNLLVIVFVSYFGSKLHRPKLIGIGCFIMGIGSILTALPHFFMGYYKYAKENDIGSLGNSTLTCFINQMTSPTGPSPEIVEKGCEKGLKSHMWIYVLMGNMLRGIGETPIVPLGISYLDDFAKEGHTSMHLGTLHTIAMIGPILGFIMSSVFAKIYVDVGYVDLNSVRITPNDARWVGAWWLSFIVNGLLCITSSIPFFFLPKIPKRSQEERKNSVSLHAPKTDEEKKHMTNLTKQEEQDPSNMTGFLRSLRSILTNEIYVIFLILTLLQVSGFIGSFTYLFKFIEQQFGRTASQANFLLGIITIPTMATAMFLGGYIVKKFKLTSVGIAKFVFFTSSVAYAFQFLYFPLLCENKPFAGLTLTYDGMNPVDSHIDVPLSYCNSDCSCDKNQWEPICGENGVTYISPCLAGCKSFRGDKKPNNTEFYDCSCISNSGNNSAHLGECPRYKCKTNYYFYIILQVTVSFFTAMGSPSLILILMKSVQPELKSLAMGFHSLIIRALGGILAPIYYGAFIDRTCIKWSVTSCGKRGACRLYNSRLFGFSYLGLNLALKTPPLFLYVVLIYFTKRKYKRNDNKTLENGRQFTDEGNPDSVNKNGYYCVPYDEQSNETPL

[2] = biological target: T2, hOATP1B3 (Homo sapiens, UniProt Q9NPD5); test: cis-inhibition of hOATP1B3-mediated TCA uptake in HEK293 cells; parameters: expressed in transfected cells; host or cells: HEK-293, stably transfected; details: 10 µM drug; for Inhibitory effect on hOATP1B3-mediated TCA uptake: 1 µM TCA, 10 min; for inhibition at 10 min, 10 µM: human, HEK293 cells expressing hOATP1B3, probe 1 µM TCA (containing 0.01 µM [3H]-TCA), Inhibitory effect on hOATP1B3-mediated TCA uptake
T2 sequence (Q9NPD5 1-702): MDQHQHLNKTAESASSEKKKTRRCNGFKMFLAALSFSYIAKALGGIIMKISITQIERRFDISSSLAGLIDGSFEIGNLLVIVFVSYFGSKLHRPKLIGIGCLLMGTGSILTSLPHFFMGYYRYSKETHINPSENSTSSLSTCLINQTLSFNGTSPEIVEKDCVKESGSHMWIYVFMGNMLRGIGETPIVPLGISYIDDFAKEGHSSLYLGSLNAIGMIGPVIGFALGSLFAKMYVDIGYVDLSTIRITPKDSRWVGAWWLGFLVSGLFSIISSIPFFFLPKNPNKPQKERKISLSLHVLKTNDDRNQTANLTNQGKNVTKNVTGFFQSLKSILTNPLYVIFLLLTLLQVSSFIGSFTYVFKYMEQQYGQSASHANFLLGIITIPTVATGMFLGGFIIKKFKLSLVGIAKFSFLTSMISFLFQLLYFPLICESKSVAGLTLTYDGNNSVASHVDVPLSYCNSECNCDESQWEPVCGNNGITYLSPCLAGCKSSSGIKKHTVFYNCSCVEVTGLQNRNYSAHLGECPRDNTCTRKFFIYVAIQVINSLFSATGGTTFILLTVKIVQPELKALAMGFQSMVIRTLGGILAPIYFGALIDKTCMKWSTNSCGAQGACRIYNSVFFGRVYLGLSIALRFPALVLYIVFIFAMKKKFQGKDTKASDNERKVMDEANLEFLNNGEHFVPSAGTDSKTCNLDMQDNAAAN
Description: (§1) Inhibitory effects were calculated as a percentage of the net-uptake rates.
(§2) The means ± average deviation (AD, for N = 2) were calculated from two experiments on two different days. The significance as a p-value was calculated using Student’s t-test in Microsoft Excel.

[3] = biological target: T3, hOATP1B1 (Homo sapiens, UniProt Q9Y6L6); test: cis-inhibition of hOATP1B1-mediated E1S uptake in HEK293 cells; parameters: expressed in transfected cells; host or cells: HEK-293, stably transfected; details: 10 µM drug; for Inhibitory effect on hOATP1B1-mediated E1S uptake: 0.01 µM [3H]-E1S, 1 min; for inhibition at 1 min, 10 µM: human, HEK293 cells expressing hOATP1B1, probe 0.01 µM [3H]-E1S, read-out: Inhibitory effect on hOATP1B1-mediated E1S uptake
T3 sequence (Q9Y6L6 1-691): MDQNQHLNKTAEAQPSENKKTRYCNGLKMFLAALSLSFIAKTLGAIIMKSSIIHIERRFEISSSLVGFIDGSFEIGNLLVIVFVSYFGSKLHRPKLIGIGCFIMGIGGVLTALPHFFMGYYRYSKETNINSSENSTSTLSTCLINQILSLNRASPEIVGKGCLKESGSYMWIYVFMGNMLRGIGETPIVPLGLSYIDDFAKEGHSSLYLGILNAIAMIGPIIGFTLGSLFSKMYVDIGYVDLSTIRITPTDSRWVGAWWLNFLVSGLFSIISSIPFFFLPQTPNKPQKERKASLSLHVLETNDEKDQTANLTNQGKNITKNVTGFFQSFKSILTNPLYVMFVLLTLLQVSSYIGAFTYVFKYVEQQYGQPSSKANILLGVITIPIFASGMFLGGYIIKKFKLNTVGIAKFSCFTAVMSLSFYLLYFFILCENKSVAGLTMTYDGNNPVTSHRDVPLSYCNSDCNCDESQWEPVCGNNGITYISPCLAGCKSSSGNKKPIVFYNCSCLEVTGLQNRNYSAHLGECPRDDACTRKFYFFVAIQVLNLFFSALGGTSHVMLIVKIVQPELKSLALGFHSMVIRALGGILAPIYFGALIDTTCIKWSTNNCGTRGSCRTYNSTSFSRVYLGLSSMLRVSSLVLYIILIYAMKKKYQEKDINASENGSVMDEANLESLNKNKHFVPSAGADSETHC
Description: as §1, §2

[4] = HEK293, 10 µM drug, 1 µM [3H]-E1S, 1 min, read-out: Inhibitory effect on rOATP1B2-mediated E1S uptake
[5] = HEK293, read-out: Inhibitory effect on rOATP1B2-mediated TCA uptake, 10 µM drug, 1 µM [3H]-TCA, 1 min
[6] = HEK293, read-out: Inhibitory effect on rOATP1B2-mediated substrate uptake (summary over E1S and TCA), 10 µM drug, substrates E1S and TCA not separated

Row | Structure (SMILES) | inhibition at 10 µM [1, 4] [%] | inhibition at 10 µM [1, 5] [%] | inhibition at 10 µM [1, 6] [%] | Inhibitory effect on hOATP1B3-mediated TCA uptake [2] | inhibition at 10 min, 10 µM [2] [%] | Inhibitory effect on hOATP1B1-mediated E1S uptake [3] | inhibition at 1 min, 10 µM [3] [%] | Inhibitory effect on hOATP1B3-mediated TCA uptake ([2]; listed as ketoconazole) | Inhibitory effect on hOATP1B1-mediated E1S uptake ([3]; listed as ketoconazole) | IC50 ([1]; 1 µM [3H]-E1S, 1 min, read-out: IC50, rOATP1B2-mediated E1S uptake) [nM] | fold difference of IC50 between mOATP1B2 and rOATP1B2 (stronger inhibition of rOATP1B2) ([1]; E1S uptake) [fold] | IC50 ([1]; IC50, rOATP1B2-mediated TCA uptake, 1 µM [3H]-TCA, 1 min) [nM] | fold difference of IC50 between mOATP1B2 and rOATP1B2 ([1]; TCA uptake) [fold] | Inhibitory effect on hOATP1B3-mediated TCA uptake ([2]; listed as amprenavir) | Inhibitory effect on hOATP1B1-mediated E1S uptake ([3]; listed as amprenavir) | Inhibitory effect on rOATP1B2-mediated substrate uptake (summary over E1S and TCA) ([1]; 10 µM drug, substrates E1S and TCA not separated)
1 | CCCCC1(CCCC)CN(c2ccccc2)c2cc(SC)c(OCC(=O)N[C@@H](C(=O)N[C@@H](CC)C(=O)O)c3ccc(O)cc3)cc2S(=O)(=O)N1 [Odevixibat, odevixibat] | 82 | 74 | 54 to 82 | completely inhibited; also recorded: complete inhibition | 102 | completely inhibited; also recorded: complete inhibition | 96 | – | – | – | – | – | – | – | – | –
2 | CO[C@H]1/C=C/O[C@@]2(C)Oc3c(C)c(O)c4c(O)c(c(/C=N/N5CCN(C)CC5)c(O)c4c3C2=O)NC(=O)/C(C)=C\C=C\[C@H](C)[C@H](O)[C@@H](C)[C@@H](O)[C@@H](C)[C@H](OC(C)=O)[C@@H]1C [Rifampicin, rifampicin] | 93 | 83 | – | – | 104 | – | 59 | – | – | 1100 | 8.7 | 2400 | 3.2 | – | – | –
3 | CC(C)c1nc(N(C)S(C)(=O)=O)nc(-c2ccc(F)cc2)c1/C=C/[C@@H](O)C[C@@H](O)CC(=O)O [Rosuvastatin, rosuvastatin] | 73 | 69 | ≥ 50 | – | 24 | – | 16 | – | – | – | – | – | – | – | – | –

The next lines start with results.

Row | inhibition at 10 µM [1, 4] [%] | inhibition at 10 µM [1, 5] [%] | inhibition at 10 µM [1, 6] [%] | Inhibitory effect on hOATP1B3-mediated TCA uptake [2] | inhibition at 10 min, 10 µM [2] [%] | Inhibitory effect on hOATP1B1-mediated E1S uptake [3] | inhibition at 1 min, 10 µM [3] [%] | Inhibitory effect on hOATP1B3-mediated TCA uptake ([2]; listed as ketoconazole) | Inhibitory effect on hOATP1B1-mediated E1S uptake ([3]; listed as ketoconazole) | IC50 ([1]; 1 µM [3H]-E1S, 1 min, read-out: IC50, rOATP1B2-mediated E1S uptake) [nM] | fold difference of IC50 between mOATP1B2 and rOATP1B2 (stronger inhibition of rOATP1B2) ([1]; E1S uptake) [fold] | IC50 ([1]; IC50, rOATP1B2-mediated TCA uptake, 1 µM [3H]-TCA, 1 min) [nM] | fold difference of IC50 between mOATP1B2 and rOATP1B2 ([1]; TCA uptake) [fold] | Inhibitory effect on hOATP1B3-mediated TCA uptake ([2]; listed as amprenavir) | Inhibitory effect on hOATP1B1-mediated E1S uptake ([3]; listed as amprenavir) | Structure (SMILES) | Inhibitory effect on rOATP1B2-mediated substrate uptake (summary over E1S and TCA) ([1]; 10 µM drug, substrates E1S and TCA not separated)
4 | 34 | 19 | < 50 | 23% | – | 25% | – | less than 50% | less than 50% | – | – | – | – | – | – | CC(=O)N1CCN(c2ccc(OCC3COC(Cn4ccnc4)(c4ccc(Cl)cc4Cl)O3)cc2)CC1 (centres unmarked) [Ketoconazole, ketoconazole] | –
5 | -10 | -10 | – | did not inhibit | -44 | did not inhibit | 10 | – | – | – | – | – | – | – | – | Clc1ccccc1C(c1ccccc1)(c1ccccc1)n1ccnc1 [Clotrimazole, clotrimazole] | no inhibitory properties; also recorded: did not inhibit
6 | 21 | 27 | < 50 | 21% | – | −1% | – | – | – | – | – | – | – | less than 50% | less than 50% | CC(C)CN(C[C@@H](O)[C@H](Cc1ccccc1)NC(=O)O[C@H]1CCOC1)S(=O)(=O)c1ccc(N)cc1 [Amprenavir, amprenavir] | –
